The text below walks through data of US4552882A, “7-(1-Pyrrolyl) derivatives of 1-ethyl-1,4-dihydro-4-oxoquinoline-3-carboxylic acids and 1-ethyl-1,4-dihydro-4-oxo-1,8-naphthyridine-3-carboxylic acids and their use as antimicrobial agents” (Provesan, SA, priority 1983, dated 1985).

Values after ≈ are worked out from the molar mass of the structure shown. Some results are limits rather than exact numbers.

Common to all, as to type: cell-based
In experiment [1] the test system is Pseudomonas aeruginosa ATCC 25115. Description: MIC in vitro. The conditions noted are these: ATCC25115, Dextrose agar, 37° C., 20 hours. The text has this: (§1) (G. L. Daquet and Y. A. Chabbect, Techniques en bacteriologie (Bacteriological techniques), vol. 3, Flammarion Medecine Sciences, Paris, 1972 and W. B. Hugo and A. D. Rusell, Pharmaceutical Microbiology, Blackwell Scientific Publications, London, (1977)). Antibiotic medium no. 1 (seed agar) (Oxoid CM 327) Tryptone-soya broth (Oxoid CM 129) Ringer's physiological solution 1/4 (oxoid BR 52) Dextrose agar (BBL-11165) 0.1 N NaOH "Pseudomonas aeruginosa" ATCC 25115 Each of the microorganisms is seeded by streaking in tubes of Antibiotic medium No. 1 (seed agar), which are then incubated at 37° C. for 20 hours. Using a culture loop, the cultures are then seeded in tryptone-soyabroth and incubated at 37° C. for 20 hours. The culture obtained is diluted to 1/4 with Ringer's physiological solution, so as to obtain a standardized suspension of 10^7 -10^9 cfu/ml for each organism. Starting from a solution of 1,000 μg/ml in 0.1 N NaOH, each product is diluted in Dextrose agar (previously melted and maintained at 50° C.), with successive dilutions so as to obtain the following concentrations: 64--32--16--8--4--2--1--0.5--0.25--0.125 μg of derivative/ml medium. For each product, the solution of each concentration is subsequently distributed into Petri dishes 10 cm in diameter, with 10 ml of medium per dish and the same number of dishes as microorganisms to be tested. As soon as the medium has cooled, the dishes are seeded with the inoculations using 0.4 ml of inoculation per dish. They are spread with a Driglasky loop and the supernatant is removed. The seeded dishes are incubated at 37° C. for 20 hours.

Experiment [2] has as its system Sarcina lutea ATCC 9341. Description: MIC in vitro. As to conditions: Micrococcus luteus, ATCC9341, Dextrose agar, 37° C., 20 hours. The procedure:
as §1, with “"Sarcina Lutea"” for “"Pseudomonas aeruginosa"”, “9341” for “25115”

Experiment [3] relates to Klebsiella pneumoniae ATCC 10031. As to the kind of experiment: MIC in vitro. As to conditions: ATCC10031, Dextrose agar, 37° C., 20 hours. The procedure: as §1, with “"Klebsiella pneumoniae"” for “"Pseudomonas aeruginosa"”, “10031” for “25115”
For experiment [4], the system named is enterobacteriaceae (Pseudomonas aeruginosa). Description: in vitro antimicrobial activity compared to pipemidic acid. The procedure: (G. L. Daquet and Y. A. Chabbect, Techniques en bacteriologie (Bacteriological techniques), vol. 3, Flammarion Medecine Sciences, Paris, 1972 and W. B. Hugo and A. D. Rusell, Pharmaceutical Microbiology, Blackwell Scientific Publications, London, (1977)).
Antibiotic medium no. 1 (seed agar) (Oxoid CM 327)
Tryptone-soya broth (Oxoid CM 129)
Ringer's physiological solution 1/4 (oxoid BR 52) Dextrose agar (BBL-11165) 0.1 N NaOH
Each of the microorganisms is seeded by streaking in tubes of Antibiotic medium No. 1 (seed agar), which are then incubated at 37° C. for 20 hours. Using a culture loop, the cultures are then seeded in tryptone-soyabroth and incubated at 37° C. for 20 hours. The culture obtained is diluted to 1/4 with Ringer's physiological solution, so as to obtain a standardized suspension of 10^7 -10^9 cfu/ml for each organism.
Starting from a solution of 1,000 μg/ml in 0.1 N NaOH, each product is diluted in Dextrose agar (previously melted and maintained at 50° C.), with successive dilutions so as to obtain the following concentrations: 64--32--16--8--4--2--1--0.5--0.25--0.125 μg of derivative/ml medium.
For each product, the solution of each concentration is subsequently distributed into Petri dishes 10 cm in diameter, with 10 ml of medium per dish and the same number of dishes as microorganisms to be tested.
As soon as the medium has cooled, the dishes are seeded with the inoculations using 0.4 ml of inoculation per dish. They are spread with a Driglasky loop and the supernatant is removed. The seeded dishes are incubated at 37° C. for 20 hours.

As for `CCn1cc(C(=O)O)c(=O)c2cnc(N3CCNCC3)nc21` [Pipemidic acid, reference compound], the MIC – broadly, the least concentration at which growth counts as inhibited – in experiment [1] was 32 µg/mL (≈ 105 µM); in experiment [2], above 64 µg/mL; in experiment [3], 2 µg/mL (≈ 6.59 µM).
On the same counts, the results for `CCn1cc(C(=O)O)c(=O)c2ccc(-n3cccc3)nc21` [Example 3, 1-ethyl-1,4-dihydro-4-oxo-7-(1-pyrrolyl)-1,8-naphthyridine-3-carboxylic acid] are above 64 µg/mL, 8 µg/mL (≈ 28.2 µM) and 4 µg/mL (≈ 14.1 µM).
Consider `CCn1cc(C(=O)O)c(=O)c2ccc(-n3cccc3)cc21` [Example 1, 7-(1-pyrrolyl)-1-ethyl-1,4-dihydro-4-oxo-3-quinolinecarboxylic acid], for which the minimum inhibitory concentration (MIC) was above 64 µg/mL in experiment [1], 16 µg/mL (≈ 56.7 µM) in experiment [2] and 1 µg/mL (≈ 3.54 µM) in experiment [3]. Besides, the “"in vitro" activity compared to pipemidic acid” value in experiment [4] is reported as “greater than that of pipemidic acid”.
On the same counts, the results for `CCn1cc(C(=O)O)c(=O)c2cc(F)c(-n3cccc3)nc21` [Example 4, 1-ethyl-1,4-dihydro-4-oxo-6-fluoro-7-(1-pyrrolyl)-1,8-naphthyridine-3-carboxylic acid] are 32 µg/mL (≈ 106 µM), 4 µg/mL (≈ 13.3 µM), 1 µg/mL (≈ 3.32 µM) and “greater than that of pipemidic acid”.
Turning to `CCn1cc(C(=O)O)c(=O)c2cc(F)c(-n3cccc3)cc21` [Example 2, 6-fluoro-7-(1-pyrrolyl)-1-ethyl-1,4-dihydro-4-oxo-3-quinolinecarboxylic acid], the minimal inhibitory concentration (MIC) in experiment [1] worked out at 16 µg/mL (≈ 53.3 µM); in experiment [2] it was 16 µg/mL (≈ 53.3 µM); in experiment [3] it was 0.5 µg/mL (≈ 1.67 µM). In addition, the “"in vitro" activity compared to pipemidic acid” value in experiment [4] is reported as “greater than that of pipemidic acid”.
